Measured values from paper PMC9596378, “Discovery and molecular basis of subtype-selective cyclophilin inhibitors” (Nature Chemical Biology, 2022).
Where “and” joins values, the source holds several entries; their conditions need not be identical. Equal entries are not always repeated. Where two headings read alike, the source gives them in different places.

Legend:
Experiment in all cases: Chymotrypsin coupled prolyl-isomerase assay
Assay type in all cases: biochemical
CypH = target: T1, CypH (Homo sapiens, UniProt O43447); conditions: for CypH prolyl-isomerase assay raw dose-response value: Fig. 3b source data, replicates
T1 construct: PPIH (UniProtKB Entry O43447: residues 1–177); His6 with TEV site (2BT vector leader) (N); made in house; host or cells: E. coli BL21(DE3)
T1 sequence (O43447 whole entry, the tested form may be a part): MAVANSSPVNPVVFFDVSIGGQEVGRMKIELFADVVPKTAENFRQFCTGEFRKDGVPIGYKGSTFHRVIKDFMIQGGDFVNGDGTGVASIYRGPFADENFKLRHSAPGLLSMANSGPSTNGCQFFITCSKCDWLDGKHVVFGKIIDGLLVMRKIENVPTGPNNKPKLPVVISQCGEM
Method in brief: (§1)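 Steps: cyclophilin plus compound 5 min at 2–3 °C; α-chymotrypsin added, 5 min more; Suc-AAPF-AMC substrate in LiCl/trifluoroethanol injected and fluorescence followed 330 s. Finals: 5 nM enzyme, 25 µM chymotrypsin, 5 µM substrate, 0.25% DMSO.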

CypC = target: T2, CypC (Homo sapiens, UniProt P45877); conditions: for CypC prolyl-isomerase assay raw dose-response value: Fig. 3b source data, replicates
T2 construct: PPIC (UniProtKB Entry P45877: residues 24–212); host or cells: E. coli BL21(DE3)
T2 sequence (P45877 24-212): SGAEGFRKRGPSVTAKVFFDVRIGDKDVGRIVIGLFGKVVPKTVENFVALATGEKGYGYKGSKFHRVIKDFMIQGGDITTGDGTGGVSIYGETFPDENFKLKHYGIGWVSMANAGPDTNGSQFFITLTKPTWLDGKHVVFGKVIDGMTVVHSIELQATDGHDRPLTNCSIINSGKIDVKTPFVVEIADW
Method in brief: as §1

CypE = target: T3, CypE (Homo sapiens, UniProt Q9UNP9); conditions: for CypE prolyl-isomerase assay raw dose-response value: Fig. 3b source data, replicates
T3 construct: PPIE (UniProtKB Entry Q9UNP9: residues 131–301); host or cells: E. coli BL21(DE3)
T3 sequence (Q9UNP9 131-301): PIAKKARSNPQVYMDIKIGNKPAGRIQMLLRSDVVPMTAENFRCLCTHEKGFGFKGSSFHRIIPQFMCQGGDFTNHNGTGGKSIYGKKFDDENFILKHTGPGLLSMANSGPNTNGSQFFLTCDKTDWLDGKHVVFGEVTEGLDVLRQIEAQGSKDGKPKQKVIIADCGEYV
Method in brief: as §1

CypG = target: T4, CypG (Homo sapiens, UniProt Q13427); conditions: for CypG prolyl-isomerase assay raw dose-response value: Fig. 3b source data, replicates
T4 construct: PPIG (UniProtKB Entry Q13427: residues 1–179); His6 with thrombin site (pET28a LIC leader) (N); host or cells: E. coli BL21(DE3)
T4 sequence (Q13427 1-179): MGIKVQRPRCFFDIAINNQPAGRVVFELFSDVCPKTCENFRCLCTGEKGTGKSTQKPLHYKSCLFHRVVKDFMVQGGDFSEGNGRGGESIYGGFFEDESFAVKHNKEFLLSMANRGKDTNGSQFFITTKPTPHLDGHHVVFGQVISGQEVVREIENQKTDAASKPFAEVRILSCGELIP
Method in brief: as §1

CypA = target: T5, CypA (Homo sapiens, UniProt P62937)
T5 construct: PPIA (UniProtKB Entry P62937: residues 1–165); made in house; host or cells: E. coli BL21(DE3)
T5 sequence (P62937 whole entry, the tested form may be a part): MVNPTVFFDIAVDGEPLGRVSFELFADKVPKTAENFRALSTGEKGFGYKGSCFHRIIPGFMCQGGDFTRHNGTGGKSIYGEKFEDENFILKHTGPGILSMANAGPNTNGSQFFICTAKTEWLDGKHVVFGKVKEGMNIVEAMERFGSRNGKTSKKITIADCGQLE
Method in brief: as §1

Compound: NCCOCCNC(=O)[C@@H]1CCNC(=O)/C=C/C(=O)N2CCC[C@](Cc3ccccc3)(C2)C(=O)N[C@@H](Cc2ccc(-c3ccc(CCC(=O)O)cc3)cc2)C(=O)NCc2ccccc2CC(=O)N1 [Compound B23]
- CypH prolyl-isomerase assay raw dose-response value (CypH; Dose 0.0201875 µM): 0.05491 and 0.05835 and 0.05541
- CypH prolyl-isomerase assay raw dose-response value (CypH; Dose 0.0605624 µM): 0.04538 and 0.05559 and 0.06086
- CypH prolyl-isomerase assay raw dose-response value (CypH; Dose 0.181687 µM): 0.05774 and 0.04961 and 0.05822
- CypH prolyl-isomerase assay raw dose-response value (CypH; Dose 0.545062 µM): 0.05324 and 0.05013 and 0.05095
- CypH prolyl-isomerase assay raw dose-response value (CypH; Dose 1.63519 µM): 0.05541 and 0.05439 and 0.06013
- CypH prolyl-isomerase assay raw dose-response value (CypH; Dose 4.90556 µM): 0.05126 and 0.04228 and 0.05669
- CypH prolyl-isomerase assay raw dose-response value (CypH; Dose 14.7167 µM): 0.04371 and 0.04194 and 0.04598
- CypH prolyl-isomerase assay raw dose-response value (CypH; Dose 44.15 µM): 0.03624 and 0.03187 and 0.03195
- IC50 (CypH; prolyl-isomerase inhibition, 5 nM cyclophilin, read-out: IC50 CypH): ~30 µM
- IC50 (CypH; wild-type CypH, read-out: Wild-Type Cyclophilin Prolyl Isomerase Inhibition IC50 Values, CypH): 30 µM
- CypC prolyl-isomerase assay raw dose-response value (CypC; Dose 0.0201875 µM): 0.0364 and 0.03611 and 0.04566
- CypC prolyl-isomerase assay raw dose-response value (CypC; Dose 0.0605624 µM): 0.03688 and 0.04021 and 0.04113
- CypC prolyl-isomerase assay raw dose-response value (CypC; Dose 0.181687 µM): 0.04275 and 0.03781 and 0.03638
- CypC prolyl-isomerase assay raw dose-response value (CypC; Dose 0.545062 µM): 0.03775 and 0.04123 and 0.03915
- CypC prolyl-isomerase assay raw dose-response value (CypC; Dose 1.63519 µM): 0.0345 and 0.03482 and 0.03957
- CypC prolyl-isomerase assay raw dose-response value (CypC; Dose 4.90556 µM): 0.0293 and 0.02714 and 0.0334
- CypC prolyl-isomerase assay raw dose-response value (CypC; Dose 14.7167 µM): 0.02525 and 0.02065 and 0.02297
- CypC prolyl-isomerase assay raw dose-response value (CypC; Dose 44.15 µM): 0.02045 and 0.01408 and 0.0166
- IC50 (CypC; wild-type CypC, read-out: Wild-Type Cyclophilin Prolyl Isomerase Inhibition IC50 Values, CypC): 5 µM
- CypE prolyl-isomerase assay raw dose-response value (CypE; Dose 0.00457247 µM): 0.1029 and 0.09388 and 0.1478
- CypE prolyl-isomerase assay raw dose-response value (CypE; Dose 0.0137174 µM): 0.07275 and 0.07554 and 0.1142
- CypE prolyl-isomerase assay raw dose-response value (CypE; Dose 0.0411523 µM): 0.04814 and 0.04078 and 0.05584
- CypE prolyl-isomerase assay raw dose-response value (CypE; Dose 0.123457 µM): 0.02663 and 0.02961 and 0.04183
- CypE prolyl-isomerase assay raw dose-response value (CypE; Dose 0.37037 µM): 0.01687 and 0.01785 and 0.01578
- CypE prolyl-isomerase assay raw dose-response value (CypE; Dose 1.11111 µM): 0.01294 and 0.01514 and 0.0179
- CypE prolyl-isomerase assay raw dose-response value (CypE; Dose 3.33333 µM): 0.01306 and 0.01252 and 0.01422
- CypE prolyl-isomerase assay raw dose-response value (CypE; Dose 10 µM): 0.01752 and 0.01195 and 0.01258
- IC50 (CypE; wild-type CypE, read-out: Wild-Type Cyclophilin Prolyl Isomerase Inhibition IC50 Values, CypE): 19 nM
- CypG prolyl-isomerase assay raw dose-response value (CypG; Dose 0.0201875 µM): 0.05557 and 0.07057 and 0.08284
- CypG prolyl-isomerase assay raw dose-response value (CypG; Dose 0.0605624 µM): 0.06342 and 0.06664 and 0.0785
- CypG prolyl-isomerase assay raw dose-response value (CypG; Dose 0.181687 µM): 0.06147 and 0.06545 and 0.06938
- CypG prolyl-isomerase assay raw dose-response value (CypG; Dose 0.545062 µM): 0.06208 and 0.06061 and 0.06273
- CypG prolyl-isomerase assay raw dose-response value (CypG; Dose 1.63519 µM): 0.04663 and 0.04276 and 0.05928
- CypG prolyl-isomerase assay raw dose-response value (CypG; Dose 4.90556 µM): 0.04439 and 0.04343 and 0.05116
- CypG prolyl-isomerase assay raw dose-response value (CypG; Dose 14.7167 µM): 0.03836 and 0.03799 and 0.04109
- CypG prolyl-isomerase assay raw dose-response value (CypG; Dose 44.15 µM): 0.02708 and 0.02241 and 0.02205
- IC50 (CypG; wild-type CypG, read-out: Wild-Type Cyclophilin Prolyl Isomerase Inhibition IC50 Values, CypG): 5 µM
- IC50 (CypA; CypA column within the mutant section (comparator for CypA E81S/K82R), read-out: Mutant Cyclophilin Prolyl Isomerase Inhibition IC50 Values, CypA): 80 nM
- CypA prolyl-isomerase assay raw dose-response value (CypA; Dose 0.0201875 µM, Fig. 3b source data, replicates): 0.09097 and 0.1013 and 0.1158
